What is called IC50 is the concentration at which inhibition is half-maximal.

Like-named read-outs stand apart in the source and are kept apart here.

In this assay the target is T1, Human Factor D (Homo sapiens, UniProt P00746).
T1 construct: purified from human serum; purchased Complement Technology, Inc; host or cells: human serum (natural protein, not recombinant)
Description: Human Factor D Assay. The format is biochemical. As to conditions: Human Factor D 80 nM, substrate Z-L-Lys-SBzl, read-out: IC50 (Stars). Put shortly:
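Serum-purified human factor D (80 nM final) preincubated 5 min at room temperature with test compound in 50 mM Tris, 1M NaCl, pH 7.5. Z-L-Lys-SBzl substrate and DTNB then added, each at 100 μM final. IC50 from nonlinear regression of reaction rate against compound concentration.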

T1 sequence (P00746 26-253): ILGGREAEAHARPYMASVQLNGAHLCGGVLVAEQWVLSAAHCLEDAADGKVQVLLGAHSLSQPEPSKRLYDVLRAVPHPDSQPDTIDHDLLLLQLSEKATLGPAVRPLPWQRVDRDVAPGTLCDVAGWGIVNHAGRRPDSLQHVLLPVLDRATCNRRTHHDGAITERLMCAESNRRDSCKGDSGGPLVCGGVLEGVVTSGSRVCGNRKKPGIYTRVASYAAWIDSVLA

For the compound `CC(=O)c1nn(CC(=O)N2[C@H](C(=O)NCC3(C)CCCCC3)C[C@@]3(C)C[C@@H]23)c2c(C)cc(-c3cnc(C)nc3)cc12` [Compound 90, (1R,3S,5R)-2-{2-[3-acetyl-7-methyl-5-(2-methylpyrimidin-5-yl)indazol-1-yl]acetyl}-5-methyl-N-[(1-methylcyclohexyl)methyl]-2-azabicyclo[3.1.0]hexane-3-carboxamide], the IC50 (Table 2) is less than 1000 nM.

Take `CC(=O)c1nn(CC(=O)N2[C@H](C(=O)Nc3nc(C(F)(F)F)ccc3C)C[C@@]3(C)C[C@@H]23)c2c(CF)cc(-c3cnc(C)nc3)cc12` [Compound 237, (1R,3S,5R)-2-(2-(3-acetyl-7-(fluoromethyl)-5-(2-methylpyrimidin-5-yl)-1H-indazol-1-yl)acetyl)-5-methyl-N-(3-methyl-6-(trifluoromethyl)pyridin-2-yl)-2-azabicyclo[3.1.0]hexane-3-carboxamide]: the IC50 (Table 2) was less than 1000 nM. Consider `CCCCC[C@@H](C)NC(=O)[C@@H]1C[C@@]2(C)C[C@H]2N1C(=O)Cn1nc(C(C)=O)c2cc(-c3cnc(C)nc3)ccc21` [Compound 17, (1R,3S,5R)-2-(2-(3-Acetyl-5-(2-methylpyrimidin-5-yl)-1H-indazol-1-yl)acetyl)-N—((R)-heptan-2-yl)-5-methyl-2-azabicyclo[3.1.0]hexane-3-carboxamide], for which the IC50 (assay of Example 3) is less than 1000 nM. For the compound `CC(=O)c1cn(CC(=O)N2[C@H](C(=O)Nc3nc(Br)ccc3C)C[C@@]3(C)C[C@@H]23)c2c(C)c(F)c(-c3cnc(C)nc3)cc12` [Compound 240, (1R,3S,5R)-2-(2-(3-acetyl-6-fluoro-7-methyl-5-(2-methylpyrimidin-5-yl)-1H-indol-1-yl)acetyl)-N-(6-bromo-3-methylpyridin-2-yl)-5-methyl-2-azabicyclo[3.1.0]hexane-3-carboxamide], the IC50 (Table 2) is less than 1000 nM. Consider `COc1cc(Br)nc(NC(=O)[C@@H]2C[C@@]3(C)C[C@H]3N2C(=O)Cn2nc(C(C)=O)c3cc(-c4cnc(CO)nc4)cc(C)c32)c1` [Compound 65, (1R,3S,5R)-2-(2-(3-acetyl-5-(2-(hydroxymethyl)pyrimidin-5-yl)-7-methyl-11H-indazol-1-yl)acetyl)-N-(6-bromo-4-methoxypyridin-2-yl)-5-methyl-2-azabicyclo[3.1.0]hexane-3-carboxamide], for which the IC50 (Table 2) is less than 1000 nM.

For the compound `CC(=O)c1nn(CC(=O)N2[C@H](C(=O)NC(C)CC3CCC3)C[C@@]3(C)C[C@@H]23)c2c(C)cc(-c3cnc(C)nc3)cc12` (stereo partly drawn) [Compound 134], where the note is “Table 2”, the IC50 was less than 1000 nM.

`CC(=O)c1nn(CC(=O)N2[C@H]3CC[C@H](C3)[C@H]2C(=O)Nc2nc(Br)ccc2C)c2c(C)cc(-c3cnc(C)nc3)cc12` [Compound 99, (1S,3S,4R)-2-(2-(3-Acetyl-7-methyl-5-(2-methylpyrimidin-5-yl)-1H-indazol-1-yl)acetyl)-N-(6-bromo-3-methylpyridin-2-yl)-2-azabicyclo[2.2.1]heptane-3-carboxamide]: the IC50 (Table 2) is less than 1000 nM. On to `COCCOC[C@@]12C[C@@H](C(=O)Nc3nc(Br)ccc3C)N(C(=O)Cn3nc(C(C)=O)c4cc(-c5cnc(CO)nc5)cc(C)c43)[C@@H]1C2` [Compound 108, (1R,3S,5S)-2-(2-(3-acetyl-5-(2-(hydroxymethyl)pyrimidin-5-yl)-7-methyl-1H-indazol-1-yl)acetyl)-N-(6-bromo-3-methylpyridin-2-yl)-5-((2-methoxyethoxy)methyl)-2-azabicyclo[3.1.0]hexane-3-carboxamide], for which the IC50 (Table 2) was 1000 to 10000 nM. Regarding `Cc1cc(F)c(Br)nc1NC(=O)[C@@H]1C[C@@]2(C)C[C@H]2N1C(=O)Cn1nc(C(N)=O)c2cc(-c3cnc(CO)nc3)nc(C)c21` [Compound 167, (1R,3S,5R)—N-(6-bromo-5-fluoro-3-methylpyridin-2-yl)-2-(2-{3-carbamoyl-5-[2-(hydroxymethyl)pyrimidin-5-yl]-7-methylpyrazolo[3,4-c]pyridin-1-yl}acetyl)-5-methyl-2-azabicyclo[3.1.0]hexane-3-carboxamide], under “Table 2”, the half-maximal inhibitory concentration (IC50) is less than 1000 nM. Same read-out and setting: the same measure for `COC(=O)c1ncc(-c2cc(C)c3c(c2)c(C(C)=O)nn3CC(=O)N2[C@H](C(=O)Nc3nc(Br)c(F)cc3C)C[C@@]3(C)C[C@@H]23)cn1` [Compound 44, Methyl 5-(3-acetyl-1-(2-((1R,3S,5R)-3-((6-bromo-5-fluoro-3-methylpyridin-2-yl)carbamoyl)-5-methyl-2-azabicyclo[3.1.0]hexan-2-yl)-2-oxoethyl)-7-methyl-1H-indazol-5-yl)pyrimidine-2-carboxylate]: less than 1000 nM; for `COc1ncc(-c2cc3c(C(C)=O)cn(CC(=O)N4[C@H](C(=O)Nc5nc(C(F)(F)F)ccc5C)C[C@@]5(C)C[C@@H]45)c3c(C)n2)cn1` [Compound 201, (1R,3S,5R)-2-(2-(3-acetyl-5-(2-methoxypyrimidin-5-yl)-7-methyl-1H-pyrrolo[2,3-c]pyridin-1-yl)acetyl)-5-methyl-N-(3-methyl-6-(trifluoromethyl)pyridin-2-yl)-2-azabicyclo[3.1.0]hexane-3-carboxamide]: less than 1000 nM. Regarding `COCCOC[C@@]12C[C@@H](C(=O)Nc3nc(Br)ccc3C)N(C(=O)Cn3nc(C(C)=O)c4cc(-c5cnc(C)nc5)cc(C)c43)[C@@H]1C2` [Compound 107, (1R,3S,5S)-2-(2-(3-acetyl-7-methyl-5-(2-methylpyrimidin-5-yl)-1H-indazol-1-yl)acetyl)-N-(6-bromo-3-methylpyridin-2-yl)-5-((2-methoxyethoxy)methyl)-2-azabicyclo[3.1.0]hexane-3-carboxamide], where the note is “Table 2”, the IC50 was less than 1000 nM. Still for that read-out and setting: the same measure for `CC(=O)c1cn(CC(=O)N2[C@H](C(=O)Nc3cncc(Br)n3)C[C@@]3(C)C[C@@H]23)c2c(C)cc(-c3cnc(C)nc3)cc12` [Compound 155, (1R,3S,5R)-2-(2-(3-acetyl-7-methyl-5-(2-methylpyrimidin-5-yl)-1H-indol-1-yl)acetyl)-N-(6-bromopyrazin-2-yl)-5-methyl-2-azabicyclo[3.1.0]hexane-3-carboxamide]: less than 1000 nM; for `CC(=O)c1nn(CC(=O)N2[C@H](C(=O)Nc3nc(C(F)(F)F)ccc3C)C[C@@]3(C)C[C@@H]23)c2c(C)cc(-c3cnc4cc(CO)nn4c3)cc12` [Compound 227, (1R,3S,5R)-2-(2-(3-acetyl-5-(2-(hydroxymethyl)pyrazolo[1,5-a]pyrimidin-6-yl)-7-methyl-1H-indazol-1-yl)acetyl)-5-methyl-N-(3-methyl-6-(trifluoromethyl)pyridin-2-yl)-2-azabicyclo[3.1.0]hexane-3-carboxamide]: less than 1000 nM.

Turning to `CC(=O)c1nn(CC(=O)N2[C@H](C(=O)NCCc3cccnc3)C[C@@]3(C)C[C@@H]23)c2c(C)cc(-c3cnc(C)nc3)cc12` [Compound 7, (1R,3S,5R)-2-(2-(3-Acetyl-7-methyl-5-(2-methylpyrimidin-5-yl)-1H-indazol-1-yl)acetyl)-5-methyl-N-(2-(pyridin-3-yl)ethyl)-2-azabicyclo[3.1.0]hexane-3-carboxamide], the IC50 (assay of Example 3) was less than 1000 nM. As for `CC(=O)c1nn(CC(=O)N2[C@H](C(=O)N[C@@H](C)C(F)(F)F)C[C@@]3(C)C[C@@H]23)c2c(C)cc(-c3cnc(C)nc3)cc12` [Compound 153, (1R,3S,5R)-2-{2-[3-acetyl-7-methyl-5-(2-methylpyrimidin-5-yl)indazol-1-yl]acetyl}-5-methyl-N-[(2S)-1,1,1-trifluoropropan-2-yl]-2-azabicyclo[3.1.0]hexane-3-carboxamide], the IC50 (Table 2) was less than 1000 nM. As to `CC(=O)c1nn(CC(=O)N2C[C@H](F)C[C@H]2C(=O)Nc2cccc(Br)n2)c2ccc(-c3ccc(C)nn3)cc12` [Compound 35, (2S,4R)-1-(2-(3-Acetyl-5-(6-methylpyridazin-3-yl)-1H-indazol-1-yl)acetyl)-N-(6-bromopyridin-2-yl)-4-fluoropyrrolidine-2-carboxamide], the IC50 (assay of Example 3) was less than 1000 nM. In the case of `CC(=O)c1cn(CC(=O)N2[C@H](C(=O)Nc3nc(Br)ccc3C)C[C@@]3(C)C[C@@H]23)c2c(C)cc(-c3cnc4cc(C)nn4c3)cc12` [Compound 198, (1R,3S,5R)-2-(2-(3-acetyl-7-methyl-5-(2-methylpyrazolo[1,5-a]pyrimidin-6-yl)-1H-indol-1-yl)acetyl)-N-(6-bromo-3-methylpyridin-2-yl)-5-methyl-2-azabicyclo[3.1.0]hexane-3-carboxamide], the IC50 (Table 2) was less than 1000 nM. Still for that read-out and setting: under `CC(=O)c1nn(CC(=O)N2[C@H](C(=O)Nc3cc(F)cc(Br)n3)C[C@@]3(C)C[C@@H]23)c2c(C)cc(-c3cnc(C(C)O)nc3)cc12` (stereo partly drawn) [Compound 124, (1R,3S,5R)-2-(2-(3-acetyl-5-(2-(1-hydroxyethyl)pyrimidin-5-yl)-7-methyl-1H-indazol-1-yl)acetyl)-N-(6-bromo-4-fluoropyridin-2-yl)-5-methyl-2-azabicyclo[3.1.0]hexane-3-carboxamide] stands less than 1000 nM; under `CCCCC(NC(=O)[C@@H]1C[C@@]2(C)C[C@H]2N1C(=O)Cn1nc(C(C)=O)c2cc(-c3cnc(C)nc3)cc(C)c21)C(F)(F)F` (stereo partly drawn) [Compound 88, (1R,3S,5R)-2-{2-[3-acetyl-7-methyl-5-(2-methylpyrimidin-5-yl)indazol-1-yl]acetyl}-5-methyl-N-(1,1,1-trifluorohexan-2-yl)-2-azabicyclo[3.1.0]hexane-3-carboxamide], less than 1000 nM. `CC(=O)c1nn(CC(=O)N2[C@H](C(=O)Nc3nc(Br)ccc3C)C[C@@]3(C)C[C@@H]23)c2c(C)cc(-c3cnc(CO)cn3)cc12` [Compound 127, (1R,3S,5R)-2-(2-(3-acetyl-5-(5-(hydroxymethyl)pyrazin-2-yl)-7-methyl-1H-indazol-1-yl)acetyl)-N-(6-bromo-3-methylpyridin-2-yl)-5-methyl-2-azabicyclo[3.1.0]hexane-3-carboxamide]: the IC50 (Table 2) is less than 1000 nM.

For the origin of these results see US20230022157A1 (Achillion Pharmaceuticals, Inc., priority 2018, published 2023).
